Measurements as given in article PMC4708007 (Bioscience Reports, 2015).

Target: T1, FtRelA (Francisella tularensis, UniProt Q5NEV0)
T1 construct: gene relA
Assay: biochemical

T1 sequence (Q5NEV0 1-647 limits assumed): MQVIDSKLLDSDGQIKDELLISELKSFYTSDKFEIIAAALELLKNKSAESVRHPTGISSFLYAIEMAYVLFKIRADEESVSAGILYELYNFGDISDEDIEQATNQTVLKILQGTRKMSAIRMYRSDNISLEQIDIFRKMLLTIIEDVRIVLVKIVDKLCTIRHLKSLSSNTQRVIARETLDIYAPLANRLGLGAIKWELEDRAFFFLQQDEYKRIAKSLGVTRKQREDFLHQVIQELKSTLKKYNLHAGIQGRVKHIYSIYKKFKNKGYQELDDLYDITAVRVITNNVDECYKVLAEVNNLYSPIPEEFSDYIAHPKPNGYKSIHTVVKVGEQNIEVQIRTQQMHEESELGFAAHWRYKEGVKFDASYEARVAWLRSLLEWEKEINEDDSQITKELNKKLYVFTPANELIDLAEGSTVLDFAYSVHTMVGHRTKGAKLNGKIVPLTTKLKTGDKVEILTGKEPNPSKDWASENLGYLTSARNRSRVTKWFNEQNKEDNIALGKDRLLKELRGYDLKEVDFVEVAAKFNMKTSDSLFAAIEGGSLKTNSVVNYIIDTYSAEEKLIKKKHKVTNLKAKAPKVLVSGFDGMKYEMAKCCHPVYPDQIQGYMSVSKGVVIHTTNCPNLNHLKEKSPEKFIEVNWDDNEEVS

Compound: Nc1nc2c(ncn2[C@@H]2O[C@H](COP(=O)(O)OP(=O)(O)O)[C@@H](OP(=O)(O)OP(=O)(O)O)[C@H]2O)c(=O)[nH]1 [ppGpp]
- EC50: 60 ± 1.9 µM
